{
  "source": "patent US20140378408A1",
  "about": "“NUCLEOSIDE 5'-PHOSPHOROTHIOATE ANALOGUES AND USES THEREOF” (BAR-ILAN UNIVERSITY, an Israeli University, priority 2012, published 2014)",
  "key": {"cortical neurons": {"tested_on": "cortical neurons", "experiment": "Neuroprotection of cultured cortical neurons exposed to FeSO4 or FeSO4/H2O2", "assay_type": "cell-based", "procedure": "FIGS. 10A-10B show the neuroprotective effect of ATP-γ-S and GDP-β-S (0.2-200 μM, t=24 h) as evaluated by MTT production in cortical neurons exposed for 24 h to either FeSO4 at final concentration of 3 μM (10A); or both FeSO4 (3 μM) and H2O2 (100 μM) (10B). The results shown are the mean±SEM of three independent experiments in quadruplicate.\nCultured cortical neurons in 96-well plates were treated with different concentrations of FeSO4, or hydrogen peroxide and FeSO4, for 24 h at 37° C. Following exposure to various insults, the cells were treated with ATP-γ-S and GDP-β-S as described. Cells were subsequently incubated for a further 18-24 h as indicated before being assessed for viability measures. Neurons were treated with ATP-γ-S and GDP-β-S at three concentrations ([…]) simultaneously with 1.5, 3 or 6 μM FeSO4 for 24 h. Following 24 h incubation in the presence of both FeSO4 and ATP-γ-S and GDP-β-S cell viability measures were assessed by XTT assay. All experiments were performed in triplicate.\nFeSO4 induced a concentration-dependent decrease in cell viability as assessed by XTT assay and morphological assessment following 24 h of exposure (FIG. 9). The neuroprotective effect of ATP-γ-S and GDP-β-S (due to iron chelation) was evaluated in cortical neurons exposed to FeSO4 for 24 h (FIG. 10)."}, "human NPP3": {"target": "T1, human NPP3 (Homo sapiens, UniProt O14638)", "T1 construct": "made in house; host or cells: COS-7 cells (transfected; protein extract / cell lysate)", "T1 sequence (O14638 1-875)": "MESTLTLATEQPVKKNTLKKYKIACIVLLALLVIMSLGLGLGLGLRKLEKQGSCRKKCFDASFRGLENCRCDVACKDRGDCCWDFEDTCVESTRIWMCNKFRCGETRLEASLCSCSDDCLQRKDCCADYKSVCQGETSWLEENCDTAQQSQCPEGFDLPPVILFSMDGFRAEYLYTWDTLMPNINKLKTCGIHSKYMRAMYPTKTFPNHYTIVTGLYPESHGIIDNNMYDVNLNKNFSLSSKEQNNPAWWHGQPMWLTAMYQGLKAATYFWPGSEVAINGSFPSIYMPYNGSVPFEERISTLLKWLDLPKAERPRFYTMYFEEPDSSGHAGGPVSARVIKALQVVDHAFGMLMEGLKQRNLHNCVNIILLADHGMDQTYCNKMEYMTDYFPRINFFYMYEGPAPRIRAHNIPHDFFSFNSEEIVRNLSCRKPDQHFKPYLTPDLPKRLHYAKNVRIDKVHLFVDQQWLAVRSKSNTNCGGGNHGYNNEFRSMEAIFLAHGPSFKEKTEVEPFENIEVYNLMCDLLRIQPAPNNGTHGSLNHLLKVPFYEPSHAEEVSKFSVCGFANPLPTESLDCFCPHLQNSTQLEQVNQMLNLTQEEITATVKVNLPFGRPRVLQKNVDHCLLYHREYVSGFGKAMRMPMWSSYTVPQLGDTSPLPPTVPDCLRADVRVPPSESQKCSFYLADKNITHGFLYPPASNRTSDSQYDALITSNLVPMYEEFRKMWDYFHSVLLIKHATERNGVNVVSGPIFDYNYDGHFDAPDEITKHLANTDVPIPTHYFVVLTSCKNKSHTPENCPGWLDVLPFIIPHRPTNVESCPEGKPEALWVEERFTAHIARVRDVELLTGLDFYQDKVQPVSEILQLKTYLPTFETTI", "experiment": "Inhibition of NPP3 activity", "assay_type": "biochemical", "details": "for inhibition at 100 µM: read-out: inhibition of NPP3 activity; for inhibition of pnp-TMP hydrolysis by NPP3: analogue and pnp-TMP 100 μM", "procedure": "Pnp-TMP hydrolyses were carried out at 37° C. in 0.2 ml of the following incubation mixture: in mM, 1 CaCl2, 130 NaCl, 5 KCl and 50 Tris, pH 8.5, with or without the analogue tested and/or substrates. Substrates and analogues were all used at the final concentration of 100 μM. […] For pnp-TMP hydrolysis, the production of para-nitro-phenol was measured at […], 15 min after the initiation of the reaction.\nThe samples were centrifuged for 5 min at 13,000×g. Supernatants were neutralized with 1 M KOH (Fisher Scientific, Ottawa, ON, Canada) at 4° C. and centrifuged for 5 min at 13,000×g."}, "human NPP1 [1]": {"target": "T2, human NPP1 (Homo sapiens, UniProt P22413)", "T2 construct": "made in house; host or cells: COS-7 cells (transfected; protein extract / cell lysate)", "T2 sequence (P22413 1-925)": "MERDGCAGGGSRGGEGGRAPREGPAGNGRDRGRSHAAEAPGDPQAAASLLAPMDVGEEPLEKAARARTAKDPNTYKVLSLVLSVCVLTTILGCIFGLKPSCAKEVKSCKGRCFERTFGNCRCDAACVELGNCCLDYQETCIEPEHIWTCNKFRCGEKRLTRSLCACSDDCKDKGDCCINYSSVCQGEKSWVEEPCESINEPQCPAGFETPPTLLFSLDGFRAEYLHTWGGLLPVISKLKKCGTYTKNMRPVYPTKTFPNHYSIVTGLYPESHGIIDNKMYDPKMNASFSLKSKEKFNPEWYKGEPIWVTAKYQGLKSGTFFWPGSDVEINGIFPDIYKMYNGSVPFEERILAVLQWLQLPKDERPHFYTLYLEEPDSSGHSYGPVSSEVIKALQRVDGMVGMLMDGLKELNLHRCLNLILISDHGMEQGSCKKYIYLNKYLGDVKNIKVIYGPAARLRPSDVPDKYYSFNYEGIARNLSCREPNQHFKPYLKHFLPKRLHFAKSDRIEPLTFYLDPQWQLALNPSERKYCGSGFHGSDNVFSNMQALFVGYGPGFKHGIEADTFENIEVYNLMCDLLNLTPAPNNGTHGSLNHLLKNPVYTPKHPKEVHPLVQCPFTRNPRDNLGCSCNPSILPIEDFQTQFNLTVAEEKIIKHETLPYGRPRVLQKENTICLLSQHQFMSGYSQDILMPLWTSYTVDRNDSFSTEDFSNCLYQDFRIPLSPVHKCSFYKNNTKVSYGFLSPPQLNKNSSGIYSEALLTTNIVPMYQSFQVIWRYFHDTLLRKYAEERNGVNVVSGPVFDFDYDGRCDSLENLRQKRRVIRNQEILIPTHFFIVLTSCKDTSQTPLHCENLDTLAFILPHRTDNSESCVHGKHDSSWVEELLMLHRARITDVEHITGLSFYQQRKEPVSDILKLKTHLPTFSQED", "experiment": "Inhibition of NPP1 activity", "assay_type": "biochemical", "details": "pNP-TMP 5·10^−5 M"}, "human NPP1 [2]": {"target": "T2, human NPP1", "experiment": "Hydrolysis by human NPP1", "assay_type": "in vitro ADME", "details": "for Hydrolysis by NPP1: 100 μM, 1 h, compared to ATP; for Relative hydrolysis by NPP1: over 2 h"}},
  "note": "Where two headings read alike, the source gives them in different places.",
  "data": [
    {"molecule": "Nc1ncnc2c1ncn2[C@@H]1O[C@H](COP(=O)(O)CP(=O)(O)OP(O)(O)=S)[C@@H](O)[C@H]1O", "note": "[APCPP-γ-S, adenosine 5′-[Pγ-thio]-α,β-methylenetriphosphate]", "values": [
      {"measurement": "IC50", "setting": "cortical neurons; Cortical neurone, read-out: IC50 protection from damage caused by FeSO4", "value": 40, "unit": "nM"},
      {"measurement": "inhibition at 100 µM", "setting": "human NPP3", "value": "23 to 43", "unit": "%"},
      {"measurement": "IC50", "setting": "human NPP1 [1]", "value": "0.39 ± 0.001", "unit": "µM"}
    ]},
    {"molecule": "Nc1ncnc2c1ncn2[C@@H]1O[C@H](COP(O)(=S)OP(=O)(O)C(Cl)(Cl)P(=O)(O)O)[C@@H](O)[C@H]1O", "note": "(single isomer, unassigned) [APPCCl2P-α-S, adenosine 5′-[Pα-thio]-β,γ-(dichloromethylene)triphosphate]", "values": [
      {"measurement": "inhibition of the hydrolysis of ATP by NPP3", "setting": "human NPP3", "value": 33, "unit": "%"},
      {"measurement": "inhibition at 100 µM", "setting": "human NPP3", "value": "23 to 43", "unit": "%"}
    ]},
    {"molecule": "Nc1ncnc2c1ncn2[C@@H]1O[C@H](COP(O)(=S)OP(=O)(O)CP(=O)(O)O)[C@@H](O)[C@H]1O", "note": "(single isomer, unassigned; isomer b) [APPCP-α-S (isomer B), adenosine 5′-[Pα-thio]-β,γ-methylenetriphosphate]", "values": [
      {"measurement": "Hydrolysis by NPP1", "setting": "human NPP1 [2]", "value": "~4", "unit": "%"},
      {"measurement": "IC50", "setting": "human NPP1 [1]; listed as APPCP-α-S B", "value": "18.7 ± 0.03", "unit": "µM"}
    ]},
    {"molecule": "adenosine-5′-tetrathiobisphosphonate", "values": [
      {"measurement": "Relative hydrolysis by NPP1", "setting": "human NPP1 [2]", "value": "not metabolized at all"},
      {"measurement": "inhibition of pnp-TMP hydrolysis by NPP3", "setting": "human NPP3", "value": 7, "unit": "%"}
    ]},
    {"molecule": "Nc1ncnc2c1ncn2[C@@H]1O[C@H](COP(O)(=S)OP(=O)(O)CP(=O)(O)O)[C@@H](O)[C@H]1O", "note": "(single isomer, unassigned; isomer a) [APPCP-α-S (isomer A), adenosine 5′-[Pα-thio]-β,γ-methylenetriphosphate]", "values": [
      {"measurement": "Hydrolysis by NPP1", "setting": "human NPP1 [2]", "value": "fully stable"},
      {"measurement": "IC50", "setting": "human NPP1 [1]; listed as APPCP-α-S A", "value": "16.3 ± 0.04", "unit": "µM"}
    ]},
    {"molecule": "Nc1ncnc2c1ncn2[C@@H]1O[C@H](COP(=O)(O)OP(O)(O)=S)[C@@H](O)[C@H]1O", "note": "[ADP-β-S, adenosine 5′-[β-thio]diphosphate, reference compound]", "values": [
      {"measurement": "IC50", "setting": "cortical neurons; Table 2, neuroprotection of primary neurons exposed to FeSO4, read-out: IC50", "value": "1200 ± 7", "unit": "nM"},
      {"measurement": "Relative hydrolysis by NPP1", "setting": "human NPP1 [2]", "value": "not metabolized at all"},
      {"measurement": "inhibition of pnp-TMP hydrolysis by NPP3", "setting": "human NPP3", "value": "less than 50%"}
    ]},
    {"molecule": "Nc1ncnc2c1ncn2[C@@H]1O[C@H](COP(O)(=S)OP(=O)(O)C(Cl)(Cl)P(=O)(O)O)[C@@H](O)[C@H]1O", "note": "(single isomer, unassigned; isomer b) [APPCCl2P-α-S (isomer B), adenosine 5′-[Pα-thio]-β,γ-(dichloromethylene)triphosphate]", "values": [
      {"measurement": "IC50", "setting": "human NPP1 [1]", "value": "31.2 ± 0.1", "unit": "µM"}
    ]},
    {"molecule": "di-adenosine-5′,5″-tetrathiobisphosphonate", "values": [
      {"measurement": "Relative hydrolysis by NPP1", "setting": "human NPP1 [2]", "value": "not metabolized at all"},
      {"measurement": "inhibition of pnp-TMP hydrolysis by NPP3", "setting": "human NPP3", "value": 20, "unit": "%"}
    ]}
  ]
}
